In patent US20050170966A1, “Surfactants and surfactant compositions” (priority 2002, published 2005):

Legend:
Assay type in all cases: in vivo
[1] = tested on: Bindweed (Convolvulus arvensis); assay: Greenhouse trial of adjuvant with glyphosate; conditions: for % kill: 7 DAT; for % fresh wt 33 days (foliage): 33 DAT
Description: (§1) This Example goves the results of greenhouse trials to investigate the adjuvant properties of compound SE2, with a fatty amine ethoxylate (FAE1) for comparitison, used in combination with glyphosate (isopropylamine salt?) as a herbicide against Couchgrass (Agropyron repens) and Bindweed (Convolvulus arvensis). Glyphosate doses of 180, 360 and 540 g(a.e.).ha^−1 were used against A. repens and 540, 810 and 1080 g(a.e.).ha^−1 against C. arvensis. The spray volume was 200 l.ha^−1 and ratios of glyphosate (active ingredient) to adjuvant of 2:0.75 (37.5%); 2:0.5 (25%); 2:0.25 (12.5%) and 2:0.1 (5%) (percentage figres in brackets are by weight adjuvant based on glyphosate a.e.) were tested. Weed kill was visually assessed 7, 14 and 21 days after treatment (DAT) and the % fresh weight of foliage was determined 22 and 33 DAT for A. repens and C. arvensis respectively. The % kill results at 7 DAT are set out in Table 3a and the % fresh weight of foliage determined 22 and 33 DAT is reported in Table 3b below. The % fresh weight of foliage is determined 22 and 33 DAT for A. repens and C. arvensis respectively and the results are included in Table 3b below: […]

[2] = tested on: Couchgrass (Agropyron repens); assay: Greenhouse trial of adjuvant with glyphosate; conditions: for % kill: 7 DAT; for % fresh wt 22 days (foliage): 22 DAT
Description: as §1

Italian ryegrass = assay: Field trial of glyphosate formulations with adjuvant; conditions: It R; 6 DAT; glyphosate 1080 g(a.e).ha^-1, adjuvant 405 g.ha^-1
Protocol: (§2) In this Example, adjuvants of the invention (SE2), plus TAE1 as control, were tested in field trials in formulations including glyphosate (isopropylamine salt) as a herbicide on flax, pea, Savoy cabbage (Sav C) and Italian ryegrass (It R) as target crops. The application rate was 1080 g(a.e).ha^−1, with adjuvant at an application rate of 405 g.ha^−1 (75% of the normal application rate for adjuvants in such formulations of 540 g.ha^−1). The effectiveness of the formulations was by visual assessment of Growth Reduction (Gr Red) and Chlorosis/Necrosis (Chlor) 6 DAT with the values being reported in % (related to an untreated control=0% effect).

Savoy cabbage [3] = assay: as above; conditions: Sav C; 6 DAT; glyphosate 1080 g(a.e).ha^-1, adjuvant 405 g.ha^-1
Protocol: as §2

flax = assay: as above; conditions: 6 DAT, glyphosate 1080 g(a.e).ha^-1, adjuvant 405 g.ha^-1
Protocol: as §2

pea [4] = assay: as above; conditions: 6 DAT, glyphosate 1080 g(a.e).ha^-1, adjuvant 405 g.ha^-1
Protocol: as §2

Savoy cabbage [5] = assay: Field trial, lower glyphosate rate, varying adjuvant rate; conditions: Sav C, 14 DAT
Protocol: as §2, with “effect). Further field trial runs were carried out similar to Example AE4 on pea and Savoy cabbage as target crops at a lower application rate of glyphosate (570 g(a.e.).ha^−1) and using varying application rates for the adjuvant (135, 270 and 405 g.ha^−1) with the formulation components being mixed in the spray tank.” for “effect).”

pea [6] = assay: as above; conditions: 14 DAT
Protocol: as §2, with “effect). Further field trial runs were carried out similar to Example AE4 on pea and Savoy cabbage as target crops at a lower application rate of glyphosate (570 g(a.e.).ha^−1) and using varying application rates for the adjuvant (135, 270 and 405 g.ha^−1) with the formulation components being mixed in the spray tank.” for “effect).”

[7] = glyphosate 570 g(a.e.).ha^-1, adjuvant 135 g/ha
[8] = glyphosate 570 g(a.e.).ha^-1, adjuvant 270 g/ha
[9] = glyphosate 570 g(a.e.).ha^-1, adjuvant 405 g/ha

1-[Bis-(2-hydroxyethyl)-amino]-2-hydroxypropane-3-(Alc1 15-ethoxylate) [SE2]
% kill ([1]; Gly 540, Adj 5% Gly): 14.29% | % kill ([1]; Gly 540, Adj 12.5% Gly): 14.29% | % kill ([1]; Gly 540, Adj 25% Gly): 14.29% | % kill ([1]; Gly 540, Adj 37.5% Gly): 14.29% | % kill ([1]; Gly 810, Adj 5% Gly): 14.29% | % kill ([1]; Gly 810, Adj 12.5% Gly): 17.86% | % kill ([1]; Gly 810, Adj 25% Gly): 14.29% | % kill ([1]; Gly 810, Adj 37.5% Gly): 14.29% | % kill ([1]; Gly 1080, Adj 5% Gly): 14.29% | % kill ([1]; Gly 1080, Adj 12.5% Gly): 14.29% | % kill ([1]; Gly 1080, Adj 25% Gly): 14.29% | % kill ([1]; Gly 1080, Adj 37.5% Gly): 14.29% | % fresh wt 33 days (foliage) ([1]; Gly 540, 5 wt % adjuvant): 54.61% | % fresh wt 33 days (foliage) ([1]; Gly 540, 12.5 wt % adjuvant): 54.21% | % fresh wt 33 days (foliage) ([1]; Gly 540, 25 wt % adjuvant): 54.97% | % fresh wt 33 days (foliage) ([1]; Gly 540, 37.5 wt % adjuvant): 53.73% | % fresh wt 33 days (foliage) ([1]; Gly 810, 5 wt % adjuvant): 53.91% | % fresh wt 33 days (foliage) ([1]; Gly 810, 12.5 wt % adjuvant): 62.03% | % fresh wt 33 days (foliage) ([1]; Gly 810, 25 wt % adjuvant): 52.01% | % fresh wt 33 days (foliage) ([1]; Gly 810, 37.5 wt % adjuvant): 55.38% | % fresh wt 33 days (foliage) ([1]; Gly 1080, 5 wt % adjuvant): 50.55% | % fresh wt 33 days (foliage) ([1]; Gly 1080, 12.5 wt % adjuvant): 53.29% | % fresh wt 33 days (foliage) ([1]; Gly 1080, 25 wt % adjuvant): 46.2% | % fresh wt 33 days (foliage) ([1]; Gly 1080, 37.5 wt % adjuvant): 43.89% | % kill ([2]; Gly 180, Adj 5% Gly): 17.86% | % kill ([2]; Gly 180, Adj 12.5% Gly): 17.86% | % kill ([2]; Gly 180, Adj 25% Gly): 21.43% | % kill ([2]; Gly 180, Adj 37.5% Gly): 21.43% | % kill ([2]; Gly 360, Adj 5% Gly): 14.29% | % kill ([2]; Gly 360, Adj 12.5% Gly): 28.57% | % kill ([2]; Gly 360, Adj 25% Gly): 32.14% | % kill ([2]; Gly 360, Adj 37.5% Gly): 25% | % kill ([2]; Gly 540, Adj 5% Gly): 28.57% | % kill ([2]; Gly 540, Adj 12.5% Gly): 25% | % kill ([2]; Gly 540, Adj 25% Gly): 35.71% | % kill ([2]; Gly 540, Adj 37.5% Gly): 39.29% | % fresh wt 22 days (foliage) ([2]; Gly 180, 5 wt % adjuvant): 95.49% | % fresh wt 22 days (foliage) ([2]; Gly 180, 12.5 wt % adjuvant): 59.81% | % fresh wt 22 days (foliage) ([2]; Gly 180, 25 wt % adjuvant): 48.07% | % fresh wt 22 days (foliage) ([2]; Gly 180, 37.5 wt % adjuvant): 53.01% | % fresh wt 22 days (foliage) ([2]; Gly 360, 5 wt % adjuvant): 63.31% | % fresh wt 22 days (foliage) ([2]; Gly 360, 12.5 wt % adjuvant): 35.66% | % fresh wt 22 days (foliage) ([2]; Gly 360, 25 wt % adjuvant): 29.69% | % fresh wt 22 days (foliage) ([2]; Gly 360, 37.5 wt % adjuvant): 40.02% | % fresh wt 22 days (foliage) ([2]; Gly 540, 5 wt % adjuvant): 23.83% | % fresh wt 22 days (foliage) ([2]; Gly 540, 12.5 wt % adjuvant): 19.63% | % fresh wt 22 days (foliage) ([2]; Gly 540, 25 wt % adjuvant): 19.6% | % fresh wt 22 days (foliage) ([2]; Gly 540, 37.5 wt % adjuvant): 18.36% | Chlor (%) Chlorosis/Necrosis (Italian ryegrass): 50% | Chlor (%) Chlorosis/Necrosis (Savoy cabbage [3]): 40% | Chlor (%) Chlorosis/Necrosis (flax): 50% | Gr Red (%) Growth Reduction (flax): 30% | Chlor (%) Chlorosis/Necrosis (pea [4]): 80% | Gr Red (%) Growth Reduction (pea [4]): 55% | % necrosis (Savoy cabbage [5]; [7]): 40% | % necrosis (Savoy cabbage [5]; [8]): 40% | % necrosis (Savoy cabbage [5]; [9]): 60% | % necrosis (pea [6]; [7]): 70% | % necrosis (pea [6]; [8]): 90% | % necrosis (pea [6]; [9]): 95%
